Values of other authors, collected in article PMC8583936, “Machine Learning Assisted Approach for Finding Novel High Activity Agonists of Human Ectopic Olfactory Receptors” (International Journal of Molecular Sciences, 2021).
Read-outs that look alike come from different tables or passages of the source.

How the values were obtained:
OR1A1 = molecular target: T1, OR1A1 (Homo sapiens, UniProt Q9P1Q5); conditions: cited from earlier work
T1 sequence (Q9P1Q5 1-309): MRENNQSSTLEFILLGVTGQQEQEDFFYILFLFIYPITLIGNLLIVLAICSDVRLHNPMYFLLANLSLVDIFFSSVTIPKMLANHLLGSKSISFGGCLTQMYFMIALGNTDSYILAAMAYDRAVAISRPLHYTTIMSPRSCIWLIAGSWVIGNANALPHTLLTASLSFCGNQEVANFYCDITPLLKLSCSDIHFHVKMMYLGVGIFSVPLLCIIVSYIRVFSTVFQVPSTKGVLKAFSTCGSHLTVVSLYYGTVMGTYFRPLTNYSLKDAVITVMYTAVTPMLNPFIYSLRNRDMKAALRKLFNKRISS

OR2W1 = molecular target: T2, OR2W1 (Homo sapiens, UniProt Q9Y3N9); conditions: cited from earlier work
T2 sequence (Q9Y3N9 1-320): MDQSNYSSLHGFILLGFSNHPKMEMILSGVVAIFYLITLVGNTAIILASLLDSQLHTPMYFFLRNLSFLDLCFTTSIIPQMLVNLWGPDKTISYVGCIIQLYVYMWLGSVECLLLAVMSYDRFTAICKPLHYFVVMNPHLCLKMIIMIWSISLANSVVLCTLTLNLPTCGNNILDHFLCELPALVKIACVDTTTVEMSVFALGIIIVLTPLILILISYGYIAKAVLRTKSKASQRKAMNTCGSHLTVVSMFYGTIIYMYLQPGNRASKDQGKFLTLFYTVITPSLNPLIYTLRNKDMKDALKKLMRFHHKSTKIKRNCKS

[1] = Table S1, ref Supplement references [1]-[9] as printed after each odorant name
[2] = Table S2, ref Supplement references [2]-[12] as printed after each odorant name

Row | Molecule | Class (agonist / non-agonist / conflicting info.) for OR1A1 (OR1A1; [1]) | Class (agonist / non-agonist / antagonist / conflicting info.) for OR2W1 (OR2W1; [2]) | Class (agonist / non-agonist / conflicting info.) for OR1A1 (OR1A1) | Class (agonist / non-agonist / antagonist / conflicting info.) for OR2W1 (OR2W1)
1 | C=CC(O)CCCCC (racemic) [(R/S)-octen-3-ol] | Agonist | Agonist | – | –
2 | CCCCC1CCC(=O)O1 (racemic) [(R/S)-γ-Octalactone] | Non-agonist | Agonist | – | –
3 | CCC(C(=O)O)c1ccccc1 (single isomer, unassigned; (+)) [(+)-2-Phenylbutyric acid] | Non-agonist | Non-agonist | – | –
4 | CC1CC[C@H](C(C)C)[C@@H](O)C1 (single isomer, unassigned; (+)) [(+)-Menthol] | Non-agonist | Conflicting info. | – | –
5 | CCC(C(=O)O)c1ccccc1 (single isomer, unassigned; (-)) [(-)-2-Phenylbutyric acid] | Non-agonist | Non-agonist | – | –
6 | C=C(C)C1CC=C(C)C(=O)C1 (single isomer, unassigned; (-)) [(-)-Carvone] | Agonist | Agonist | – | –
7 | CC1=CCC2CC1C2(C)C (single isomer, unassigned; (-)) [(-)-alpha-Pinene] | Non-agonist | Non-agonist | – | –
8 | C=C1CCC2CC1C2(C)C (single isomer, unassigned; (-)) [(-)-beta-Pinene] | Non-agonist | Non-agonist | – | –
9 | CCCCCCCC(OC)OC [1,1-dimethoxy-octane] | Non-agonist | Agonist | – | –
10 | CC(S)CCS (stereo not drawn) [1,3-butane dithiol] | Non-agonist | Non-agonist | – | –
11 | CC12CCC(CC1)C(C)(C)O2 [1,8-cineole] | Non-agonist | Non-agonist | – | –
12 | CCCCO [1-butanol] | Non-agonist | Non-agonist | – | –
13 | CCCCCCCCCCO [1-decanol] | Agonist | Agonist | – | –
14 | C=CC(=O)CCCCC [1-octen-3-one] | Conflicting info. | Non-agonist | – | –
15 | CC1=CCC(C(C)(C)S)CC1 (stereo not drawn) [1-p-Menthene-8-thiol] | Non-agonist | Non-agonist | – | –
16 | CCCO [1-propanol] | Non-agonist | Non-agonist | – | –
17 | CCCCCCCCCCCO [1-undecanol] | Non-agonist | Non-agonist | – | –
18 | CC(=O)c1ccccc1N [2'-aminoacetophenone] | – | – | Non-agonist | Non-agonist
19 | CCc1ncc(C)nc1CC [2,3-dietyl-5-methylpyrazine] | Non-agonist | Non-agonist | – | –
20 | CCCC(=O)C(C)=O [2,3-hexanedione] | Non-agonist | Agonist | – | –

Row | Molecule | Class (agonist / non-agonist / conflicting info.) for OR1A1 (OR1A1; [1]) | Class (agonist / non-agonist / antagonist / conflicting info.) for OR2W1 (OR2W1; [2]) | Class (agonist / non-agonist / conflicting info.) for OR1A1 (OR1A1) | Class (agonist / non-agonist / antagonist / conflicting info.) for OR2W1 (OR2W1)
21 | CCC(=O)C(C)=O [2,3-pentanedione] | – | – | Non-agonist | Non-agonist
22 | CC1=NC(C)SC1C (stereo not drawn) [2,4,5-trimethyl-2,5-dihydro-1,3-thiazole] | Non-agonist | Antagonist | – | –
23 | Cc1ccc(O)c(C)c1 [2,4-dimethylphenol] | – | – | Non-agonist | Non-agonist
24 | CCCC/C=C\C=C\C=O [2,4-nonadienal, (2e,4z)-] | Non-agonist | Non-agonist | – | –
25 | CCCCCC(=O)CC(C)=O [2,4-nonanedione] | – | Agonist | – | –
26 | CCCCC(=O)CC(C)=O [2,4-octanedione] | – | Agonist | – | –
27 | COc1cccc(OC)c1O [2,6-dimethoxyphenol] | Non-agonist | Non-agonist | – | –
28 | Cc1cccc(C)c1O [2,6-dimethylphenol] | – | – | Non-agonist | Non-agonist
29 | CC(=O)C1=NCCS1 [2-Acetyl-2-thiazoline] | Non-agonist | Non-agonist | – | –
30 | CC(=O)c1ccco1 [2-Furyl methyl ketone] | Non-agonist | Non-agonist | – | –
31 | CCc1ccc(O)c(OC)c1 [2-Methoxy-4-ethylphenol] | Non-agonist | Non-agonist | – | –
32 | COc1ccc(C)cc1O [2-Methoxy-5-methylphenol] | Non-agonist | Non-agonist | – | –
33 | Cc1occc1S [2-Methyl-3-furanthiol] | Non-agonist | Non-agonist | – | –
34 | CCC(S)C(C)CO (stereo not drawn) [2-Methyl-3-sulfanylpentan-1-ol] | Non-agonist | Non-agonist | – | –
35 | CCC(C)COC(C)=O (stereo not drawn) [2-Methylbutyl acetate] | Non-agonist | Non-agonist | – | –
36 | O=C(O)Cc1ccccc1 [2-Phenylacetic acid] | – | – | Non-agonist | Non-agonist
37 | CC(=O)OCCc1ccccc1 [2-Phenylethyl acetate] | Agonist | Agonist | – | –
38 | CCC(=O)C(C)S (stereo not drawn) [2-Sulfanylpentan-3-one] | Non-agonist | Non-agonist | – | –
39 | CC(=O)c1cnccn1 [2-acetylpyrazine] | Non-agonist | Non-agonist | – | –
40 | CCC(C)=O [2-butanone] | – | – | Non-agonist | Non-agonist

Row | Molecule | Class (agonist / non-agonist / conflicting info.) for OR1A1 (OR1A1; [1]) | Class (agonist / non-agonist / antagonist / conflicting info.) for OR2W1 (OR2W1; [2]) | Class (agonist / non-agonist / conflicting info.) for OR1A1 (OR1A1) | Class (agonist / non-agonist / antagonist / conflicting info.) for OR2W1 (OR2W1)
41 | O=C1Cc2ccccc2O1 [2-coumaranone] | Non-agonist | Non-agonist | – | –
42 | CC(=O)CC(=O)CC(C)C [6-Methyl-2,4-heptanedione] | – | Agonist | – | –
43 | CC(C)=CCC[C@@H](C)CC=O [Citronellal] | – | – | – | Agonist
44 | CCCCCCCCCC(=O)O [Decanoic acid] | – | Agonist | – | –
45 | CCCCCCCS [Heptane-1-thiol] | – | Agonist | – | –
46 | CCCCCCS [Hexane-1-thiol] | – | – | – | Agonist
47 | CCCCCS [Pentane-1-thiol] | – | Agonist | – | –
48 | CC(=O)CCc1ccc(O)cc1 [Raspberry ketone] | – | – | Non-agonist | –
49 | O=C(O)CCC(=O)O [Succinic acid] | Non-agonist | – | – | –
50 | Cc1ccc(C(C)C)c(O)c1 [Thymol] | – | – | Conflicting info. | –
51 | CC(=O)c1cc2c(cc1C)C(C)(C)C(C)CC2(C)C (stereo not drawn) [Tonalide] | – | – | Non-agonist | –
52 | O=C(O)/C=C(\CC(=O)O)C(=O)O [Trans-Aconitic acid] | – | – | Non-agonist | –
53 | C=CC(=C)CC/C=C(\C)CCC=C(C)C [Trans-beta-farnesene] | Non-agonist | – | – | –
54 | CN(C)C [Trimethylamine] | – | – | Non-agonist | –
55 | CCCCCCCCCCC=O [Undecanal] | Non-agonist | – | – | –
56 | CC/C=C\CCCCCC=O [Z-7-decanal] | Agonist | – | – | –
57 | (+)-Menthone | – | – | Agonist | –
58 | (S)-(-)-citronellal | – | – | Agonist | –
59 | Ambrettolide | Non-agonist | – | – | –
60 | Farnesene | Non-agonist | – | – | –
